Earlier results, collected in US20260207574A1, “Pharmaceutical composition of pitolisant hydrochloride and Their Process for the preparation” (MSN Laboratories Private Limited, R & D Center, priority 2022, published 2026).
Structures can show the parent of a compound that is named as a salt.

Key:
[1] = until 75% RH; as per EMA
[2] = leads to N-oxide derivative as main degradation product; as per EMA

Row | solubility in acetone (acetone) | solubility in cyclohexane (cyclohexane) | solubility in ethanol (ethanol) | solubility in methylene chloride (methylene chloride) | solubility in water (water) | hygroscopicity [1] | solubility in water until pH 7.5 (water, until pH 7.5, as per EMA) | Structure (SMILES) | sensitivity to oxidative conditions [2]
1 | freely soluble | practically insoluble | very soluble | very soluble | very soluble |  |  | Clc1ccc(CCCOCCCN2CCCCC2)cc1 [Pitolisant hydrochloride, 1-{3-[3-(4-chlorophenyl)propoxy]propyl} piperidine, hydrochloride] | 
2 |  |  |  |  |  | not hygroscopic | very soluble | Clc1ccc(CCCOCCCN2CCCCC2)cc1 [pitolisant] | sensitive to excessive oxidative conditions
